We go through 14 compounds from article PMC8319832, “Fine-Tuning of Alkaline Residues on the Hydrophilic Face Provides a Non-toxic Cationic α-Helical Antimicrobial Peptide Against Antibiotic-Resistant ESKAPE Pathogens” (Frontiers in Microbiology, 2021).

In data set [1] the test system is S. aureus ATCC29213. Description: MIC, broth dilution. In kind it is cell-based, Staphylococcus aureus. Particulars: CLSI broth dilution, MHB, 6.25 × 10^5 cfu per ml, 37°C, 20 h, OD630, at least three repeats. The method, then: All experiments were repeated at least three times.
To study the influence of physiological ions on the antimicrobial activities of the peptides, The MICs of the peptides were also determined against the standard bacterial strains cultured in MHB containing various salts at their physiological concentrations (150 mM NaCl, 4.5 mM KCl, 1 mM MgCl2, 2 mM CaCl2, 6 μM NH4HCO3, and 4 μM FeCl3) ([Ma et al., 2016]).

In data set [2] the test system is E. coli ATCC25922. Kind of data set: MIC, broth dilution. It is filed as cell-based, Escherichia coli. The settings on record: CLSI broth dilution, MHB, 6.25 × 10^5 cfu per ml, 37°C, 20 h, OD630, at least three repeats.
The test system of data set [3] is human red blood cells (hRBCs). Description: Hemolytic activity determination. In kind it is cell-based. Particulars: hRBCs in 0.9% sodium chloride, 37°C, 1 h, OD540, 1% Triton X-100 = 100%, three independent experiments. The method, then: Fresh human red blood cells (hRBCs) were collected in a sterile borosilicate glass tube covered with sodium citrate as the anticoagulating agent. […] Two-fold dilutions of the peptides were prepared in 0.9% sodium chloride to 100 μl and mixed with equal volumn of hRBC suspension to final peptide concentrations ranging from 12.5 to 200 μg ml^–1. After co-incubation at 37°C for 1 h, the samples were centrifuged (2,000 × g, 4°C, 20 min), and the supernatant (100 μl) was taken for optical density (OD540) measurements (Asample). The hRBCs assayed with 0.9% sodium chloride (Ablank) or 1% Triton X-100 (Apositive) were applied as 0% and 100% hemolysis, respectively. Three independent experiments were performed and the percent hemolysis was calculated according to the following equation ([Yin et al., 2012]; [Li et al., 2016]):
Hemolysis(%)=100*(Asample-Ablank)/(Apositive-Ablank)

Converted amounts (≈) assume the structure as drawn. Where a SMILES comes first, the peptide text is derived from it.

For `CC[C@H](C)[C@H](NC(=O)[C@H](CCCNC(=N)N)NC(=O)CNC(=O)[C@@H](NC(=O)[C@@H](N)Cc1ccccc1)[C@@H](C)CC)C(=O)N[C@@H](C)C(=O)N[C@@H](CCCNC(=N)N)C(=O)N[C@@H](CC(C)C)C(=O)N[C@@H](CC(C)C)C(=O)N[C@@H](CO)C(=O)N[C@@H](CCCCN)C(=O)N[C@H](C(=O)N[C@@H](Cc1ccccc1)C(N)=O)[C@@H](C)CC` [Kn2(A4R)] (H-FIGRIARLLSKIF-NH2), the MIC in data set [1] stood at 5 µg/mL (≈ 3.26 µM); in data set [2], 10 µg/mL (≈ 6.52 µM). In addition, the “percent hRBC hemolysis” value in data set [3] (peptide 25 μg ml^–1) came out at 100%.
In the same order, the values of `CC[C@H](C)[C@H](NC(=O)[C@H](CCCNC(=N)N)NC(=O)CNC(=O)[C@@H](NC(=O)[C@@H](N)Cc1ccccc1)[C@@H](C)CC)C(=O)N[C@@H](C)C(=O)N[C@@H](CCCNC(=N)N)C(=O)N[C@@H](CC(C)C)C(=O)N[C@@H](CC(C)C)C(=O)N[C@@H](CCCNC(=N)N)C(=O)N[C@@H](CCCCN)C(=O)N[C@H](C(=O)N[C@@H](Cc1ccccc1)C(N)=O)[C@@H](C)CC` [Kn2(A4R_S10R)] (H-FIGRIARLLRKIF-NH2) are 10 µg/mL (≈ 6.24 µM), 20 µg/mL (≈ 12.5 µM) and 18.0%.
Regarding `CC[C@H](C)[C@H](NC(=O)[C@H](C)NC(=O)[C@H](CCCCN)NC(=O)[C@@H](NC(=O)[C@@H](N)Cc1ccccc1)[C@@H](C)CC)C(=O)N[C@@H](C)C(=O)N[C@@H](CCCNC(=N)N)C(=O)N[C@@H](CC(C)C)C(=O)N[C@@H](CC(C)C)C(=O)N[C@@H](CO)C(=O)N[C@@H](CCCCN)C(=O)N[C@H](C(=O)N[C@@H](Cc1ccccc1)C(N)=O)[C@@H](C)CC` [Kn2(G3K)] (H-FIKAIARLLSKIF-NH2), the MIC in data set [1] was found to be 5 µg/mL (≈ 3.29 µM); in data set [2], 40 µg/mL (≈ 26.3 µM). In addition, the “percent hRBC hemolysis” value in data set [3] (peptide 25 μg ml^–1) is recorded as 69.0%.
In the same order, the values of `CC[C@H](C)[C@H](NC(=O)[C@H](CCCNC(=N)N)NC(=O)[C@H](CCCCN)NC(=O)[C@@H](NC(=O)[C@@H](N)Cc1ccccc1)[C@@H](C)CC)C(=O)N[C@@H](C)C(=O)N[C@@H](CCCNC(=N)N)C(=O)N[C@@H](CC(C)C)C(=O)N[C@@H](CC(C)C)C(=O)N[C@@H](CO)C(=O)N[C@@H](CCCCN)C(=O)N[C@H](C(=O)N[C@@H](Cc1ccccc1)C(N)=O)[C@@H](C)CC` [Kn2(G3K_A4R)] (H-FIKRIARLLSKIF-NH2) are 5 µg/mL (≈ 3.12 µM), 10 µg/mL (≈ 6.23 µM) and 8.3%.
In the same order, the values of `CC[C@H](C)[C@H](NC(=O)[C@H](C)NC(=O)[C@H](CCCCN)NC(=O)[C@@H](NC(=O)[C@@H](N)Cc1ccccc1)[C@@H](C)CC)C(=O)N[C@@H](C)C(=O)N[C@@H](CCCNC(=N)N)C(=O)N[C@@H](CC(C)C)C(=O)N[C@@H](CC(C)C)C(=O)N[C@@H](CCCNC(=N)N)C(=O)N[C@@H](CCCCN)C(=O)N[C@H](C(=O)N[C@@H](Cc1ccccc1)C(N)=O)[C@@H](C)CC` [Kn2(G3K_S10R)] (H-FIKAIARLLRKIF-NH2) are 10 µg/mL (≈ 6.3 µM), 20 µg/mL (≈ 12.6 µM) and 77.5%.
On the same counts, the results for `CC[C@H](C)[C@H](NC(=O)[C@H](C)NC(=O)CNC(=O)[C@@H](NC(=O)[C@@H](N)Cc1ccccc1)[C@@H](C)CC)C(=O)N[C@@H](C)C(=O)N[C@@H](CCCNC(=N)N)C(=O)N[C@@H](CC(C)C)C(=O)N[C@@H](CC(C)C)C(=O)N[C@@H](CCCNC(=N)N)C(=O)N[C@@H](CCCCN)C(=O)N[C@H](C(=O)N[C@@H](Cc1ccccc1)C(N)=O)[C@@H](C)CC` [Kn2(S10R)] (H-FIGAIARLLRKIF-NH2) are 10 µg/mL (≈ 6.59 µM), 20 µg/mL (≈ 13.2 µM) and 50.9%.
For the compound `CC[C@H](C)[C@H](NC(=O)[C@H](CCCNC(=N)N)NC(=O)[C@H](CCCNC(=N)N)NC(=O)[C@@H](NC(=O)[C@@H](N)Cc1ccccc1)[C@@H](C)CC)C(=O)N[C@@H](C)C(=O)N[C@@H](CCCNC(=N)N)C(=O)N[C@@H](CC(C)C)C(=O)N[C@@H](CC(C)C)C(=O)N[C@@H](CCCNC(=N)N)C(=O)N[C@@H](CCCCN)C(=O)N[C@H](C(=O)N[C@@H](Cc1ccccc1)C(N)=O)[C@@H](C)CC` [Kn2-7(K3R)] (H-FIRRIARLLRKIF-NH2), the MIC in data set [1] turned out to be 5 µg/mL (≈ 2.94 µM); in data set [2] it was 20 µg/mL (≈ 11.8 µM). Moreover, in data set [3] (peptide 100 μg ml^–1), the “percent hRBC hemolysis” value is recorded as 89.3%.
Take `CC[C@H](C)[C@H](NC(=O)[C@H](CCCNC(=N)N)NC(=O)[C@H](CCCCN)NC(=O)[C@@H](NC(=O)[C@@H](N)Cc1ccccc1)[C@@H](C)CC)C(=O)N[C@@H](C)C(=O)N[C@@H](CCCNC(=N)N)C(=O)N[C@@H](CC(C)C)C(=O)N[C@@H](CC(C)C)C(=O)N[C@@H](CCCNC(=N)N)C(=O)N[C@@H](CCCNC(=N)N)C(=O)N[C@H](C(=O)N[C@@H](Cc1ccccc1)C(N)=O)[C@@H](C)CC` [Kn2-7(K11R)] (H-FIKRIARLLRRIF-NH2): the MIC in data set [1] came out at 5 µg/mL (≈ 2.94 µM); in data set [2], 10 µg/mL (≈ 5.88 µM).
Consider `CC[C@H](C)[C@H](NC(=O)[C@H](CCCCN)NC(=O)[C@H](CCCCN)NC(=O)[C@@H](NC(=O)[C@@H](N)Cc1ccccc1)[C@@H](C)CC)C(=O)N[C@@H](C)C(=O)N[C@@H](CCCNC(=N)N)C(=O)N[C@@H](CC(C)C)C(=O)N[C@@H](CC(C)C)C(=O)N[C@@H](CCCNC(=N)N)C(=O)N[C@@H](CCCCN)C(=O)N[C@H](C(=O)N[C@@H](Cc1ccccc1)C(N)=O)[C@@H](C)CC` [Kn2-7(R4K)] (H-FIKKIARLLRKIF-NH2), for which the MIC in data set [1] and in data set [2] was 5 µg/mL (≈ 3.04 µM) in each case.
For `CC[C@H](C)[C@H](NC(=O)[C@H](CCCCN)NC(=O)[C@H](CCCCN)NC(=O)[C@@H](NC(=O)[C@@H](N)Cc1ccccc1)[C@@H](C)CC)C(=O)N[C@@H](C)C(=O)N[C@@H](CCCCN)C(=O)N[C@@H](CC(C)C)C(=O)N[C@@H](CC(C)C)C(=O)N[C@@H](CCCNC(=N)N)C(=O)N[C@@H](CCCCN)C(=O)N[C@H](C(=O)N[C@@H](Cc1ccccc1)C(N)=O)[C@@H](C)CC` [Kn2-7(R4K_R7K)] (H-FIKKIAKLLRKIF-NH2), the MIC in data set [1] is 5 µg/mL (≈ 3.09 µM); in data set [2] it was 10 µg/mL (≈ 6.18 µM).
In the same order, the values of `CC[C@H](C)[C@H](NC(=O)[C@H](CCCCN)NC(=O)[C@H](CCCCN)NC(=O)[C@@H](NC(=O)[C@@H](N)Cc1ccccc1)[C@@H](C)CC)C(=O)N[C@@H](C)C(=O)N[C@@H](CCCNC(=N)N)C(=O)N[C@@H](CC(C)C)C(=O)N[C@@H](CC(C)C)C(=O)N[C@@H](CCCCN)C(=O)N[C@@H](CCCCN)C(=O)N[C@H](C(=O)N[C@@H](Cc1ccccc1)C(N)=O)[C@@H](C)CC` [Kn2-7(R4K_R10K)] (H-FIKKIARLLKKIF-NH2) are 2.5 µg/mL (≈ 1.55 µM) and 5 µg/mL (≈ 3.09 µM).
In the same order, the values of `CC[C@H](C)[C@H](NC(=O)[C@H](CCCNC(=N)N)NC(=O)[C@H](CCCCN)NC(=O)[C@@H](NC(=O)[C@@H](N)Cc1ccccc1)[C@@H](C)CC)C(=O)N[C@@H](C)C(=O)N[C@@H](CCCCN)C(=O)N[C@@H](CC(C)C)C(=O)N[C@@H](CC(C)C)C(=O)N[C@@H](CCCNC(=N)N)C(=O)N[C@@H](CCCCN)C(=O)N[C@H](C(=O)N[C@@H](Cc1ccccc1)C(N)=O)[C@@H](C)CC` [Kn2-7(R7K)] (H-FIKRIAKLLRKIF-NH2) are 5 µg/mL (≈ 3.04 µM) and 20 µg/mL (≈ 12.2 µM).
On the same counts, the results for `CC[C@H](C)[C@H](NC(=O)[C@H](CCCNC(=N)N)NC(=O)[C@H](CCCCN)NC(=O)[C@@H](NC(=O)[C@@H](N)Cc1ccccc1)[C@@H](C)CC)C(=O)N[C@@H](C)C(=O)N[C@@H](CCCCN)C(=O)N[C@@H](CC(C)C)C(=O)N[C@@H](CC(C)C)C(=O)N[C@@H](CCCCN)C(=O)N[C@@H](CCCCN)C(=O)N[C@H](C(=O)N[C@@H](Cc1ccccc1)C(N)=O)[C@@H](C)CC` [Kn2-7(R7K_R10K)] (H-FIKRIAKLLKKIF-NH2) are 5 µg/mL (≈ 3.09 µM) and 20 µg/mL (≈ 12.4 µM).
Consider `CC[C@H](C)[C@H](NC(=O)[C@H](CCCNC(=N)N)NC(=O)[C@H](CCCCN)NC(=O)[C@@H](NC(=O)[C@@H](N)Cc1ccccc1)[C@@H](C)CC)C(=O)N[C@@H](C)C(=O)N[C@@H](CCCNC(=N)N)C(=O)N[C@@H](CC(C)C)C(=O)N[C@@H](CC(C)C)C(=O)N[C@@H](CCCCN)C(=O)N[C@@H](CCCCN)C(=O)N[C@H](C(=O)N[C@@H](Cc1ccccc1)C(N)=O)[C@@H](C)CC` [Kn2-7(R10K)] (H-FIKRIARLLKKIF-NH2), for which the MIC in data set [1] and in data set [2] was 5 µg/mL (≈ 3.04 µM) in each case.
